Test results: ChEMBL document CHEMBL1142912, “Novel piperazines: potent melanocortin-4 receptor antagonists with anxiolytic-like activity” (Bioorg Med Chem, 2007)
The source made the active and inactive calls. No cut-off for these calls is given here.

How the values were obtained:
Melanocortin receptor 4 = Melanocortin receptor 4 (Homo sapiens, UniProt P32245); assay: Displacement of [125I][Nle4,D-Phe7]alphaMSH from human MC4R expressed in COS7 cells; format: cell-based, COS-7
D(2) dopamine receptor = D(2) dopamine receptor (Rattus norvegicus, UniProt P61169); assay: Displacement of [3H]raclopride from dopamine receptor D2 in rat striatal membrane; format: cell membranes, Striatum
[1] = biological target: T1, Adrenergic receptor alpha-1 (Rattus norvegicus, UniProt P15823+P23944+P43140); assay: Displacement of [3H]prazosin from Adrenergic alpha-1 receptor in rat cortical membrane; format: cell membranes
T1 sequence (P15823 whole entry): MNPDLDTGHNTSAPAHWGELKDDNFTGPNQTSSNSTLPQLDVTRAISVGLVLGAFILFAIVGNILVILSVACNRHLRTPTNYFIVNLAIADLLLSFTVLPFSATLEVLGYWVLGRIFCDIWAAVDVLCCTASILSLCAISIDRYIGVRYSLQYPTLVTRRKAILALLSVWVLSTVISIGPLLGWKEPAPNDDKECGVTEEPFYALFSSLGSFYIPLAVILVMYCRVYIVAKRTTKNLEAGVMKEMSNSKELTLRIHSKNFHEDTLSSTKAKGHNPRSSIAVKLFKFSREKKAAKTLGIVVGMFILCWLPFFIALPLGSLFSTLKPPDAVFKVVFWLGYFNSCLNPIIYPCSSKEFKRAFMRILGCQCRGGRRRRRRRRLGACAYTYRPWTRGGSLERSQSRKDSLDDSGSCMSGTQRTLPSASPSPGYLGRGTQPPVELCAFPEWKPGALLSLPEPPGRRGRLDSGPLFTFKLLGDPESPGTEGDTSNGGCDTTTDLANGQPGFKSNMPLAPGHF
T1 sequence (P23944 whole entry): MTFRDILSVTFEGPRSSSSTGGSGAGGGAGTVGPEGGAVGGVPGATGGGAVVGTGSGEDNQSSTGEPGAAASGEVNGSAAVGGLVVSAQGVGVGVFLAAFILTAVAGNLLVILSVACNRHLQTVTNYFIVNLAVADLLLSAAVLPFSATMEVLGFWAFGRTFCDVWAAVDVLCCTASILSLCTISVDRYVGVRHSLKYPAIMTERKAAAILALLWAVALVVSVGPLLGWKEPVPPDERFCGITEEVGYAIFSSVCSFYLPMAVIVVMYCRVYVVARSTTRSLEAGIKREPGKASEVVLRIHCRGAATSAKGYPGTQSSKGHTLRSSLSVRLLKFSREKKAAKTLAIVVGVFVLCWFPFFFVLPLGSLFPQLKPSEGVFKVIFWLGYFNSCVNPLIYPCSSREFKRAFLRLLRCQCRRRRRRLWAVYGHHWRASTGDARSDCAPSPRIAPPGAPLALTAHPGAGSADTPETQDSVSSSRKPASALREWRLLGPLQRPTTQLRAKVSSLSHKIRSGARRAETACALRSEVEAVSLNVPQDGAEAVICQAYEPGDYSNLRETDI
T1 sequence (P43140 whole entry): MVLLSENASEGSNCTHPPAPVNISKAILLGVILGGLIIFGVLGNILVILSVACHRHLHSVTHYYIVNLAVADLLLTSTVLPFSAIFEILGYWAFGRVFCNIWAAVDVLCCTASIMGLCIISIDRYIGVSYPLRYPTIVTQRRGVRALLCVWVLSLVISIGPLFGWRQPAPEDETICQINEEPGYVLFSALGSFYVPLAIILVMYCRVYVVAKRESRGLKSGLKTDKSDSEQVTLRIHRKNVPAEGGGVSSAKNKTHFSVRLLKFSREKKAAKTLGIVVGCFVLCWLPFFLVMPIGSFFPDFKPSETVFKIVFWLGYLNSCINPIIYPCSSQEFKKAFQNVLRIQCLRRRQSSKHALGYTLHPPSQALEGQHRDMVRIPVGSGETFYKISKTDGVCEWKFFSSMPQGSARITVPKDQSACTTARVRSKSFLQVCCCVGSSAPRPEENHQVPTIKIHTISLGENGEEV

Mu-type opioid receptor = Mu-type opioid receptor (Rattus norvegicus, UniProt P33535); assay: Displacement of [3H]DAMGO from mu opioid receptor in rat brain membrane; format: cell membranes
Histamine H1 receptor = Histamine H1 receptor (Rattus norvegicus, UniProt P31390); assay: Displacement of [3H]pyrilamine from histamine H1 receptor in rat brain membrane; format: cell membranes
[2] = biological target: Delta-type opioid receptor (Rattus norvegicus, UniProt P33533); assay: Displacement of [3H]DPDPE from delta opioid receptor in rat brain membrane; format: cell membranes
[3] = biological target: Norepinephrine transporter (Rattus norvegicus, UniProt Q9WTR4); assay: Displacement of [3H]nisoxetine from NET in rat cortical membrane; format: cell membranes
[4] = biological target: Sodium-dependent serotonin transporter (Rattus norvegicus, UniProt P31652); assay: Displacement of [3H]paroxetine from serotonin transporter in rat cortical membrane; format: cell membranes
Rattus norvegicus = assay: Reversal of stress-induced anxiety-like behavior in Sprague-Dawley rat at 1 mg/kg, po; format: functional, organism-based; set-up: dose 1 mg/kg

Chain of D(2) dopamine receptor (P61169 whole entry): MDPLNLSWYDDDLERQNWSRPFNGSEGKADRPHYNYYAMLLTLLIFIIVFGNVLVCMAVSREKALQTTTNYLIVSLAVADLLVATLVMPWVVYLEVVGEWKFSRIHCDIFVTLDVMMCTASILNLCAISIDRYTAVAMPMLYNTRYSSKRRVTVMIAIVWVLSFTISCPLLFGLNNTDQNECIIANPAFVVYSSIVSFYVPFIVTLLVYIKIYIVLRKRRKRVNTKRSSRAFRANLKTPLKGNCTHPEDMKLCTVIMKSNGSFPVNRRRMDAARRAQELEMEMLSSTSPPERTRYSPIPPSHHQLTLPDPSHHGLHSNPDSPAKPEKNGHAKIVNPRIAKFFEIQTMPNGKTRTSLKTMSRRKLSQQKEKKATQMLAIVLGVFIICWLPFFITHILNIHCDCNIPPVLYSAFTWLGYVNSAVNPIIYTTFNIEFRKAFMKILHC
Chain of Melanocortin receptor 4 (P32245 whole entry): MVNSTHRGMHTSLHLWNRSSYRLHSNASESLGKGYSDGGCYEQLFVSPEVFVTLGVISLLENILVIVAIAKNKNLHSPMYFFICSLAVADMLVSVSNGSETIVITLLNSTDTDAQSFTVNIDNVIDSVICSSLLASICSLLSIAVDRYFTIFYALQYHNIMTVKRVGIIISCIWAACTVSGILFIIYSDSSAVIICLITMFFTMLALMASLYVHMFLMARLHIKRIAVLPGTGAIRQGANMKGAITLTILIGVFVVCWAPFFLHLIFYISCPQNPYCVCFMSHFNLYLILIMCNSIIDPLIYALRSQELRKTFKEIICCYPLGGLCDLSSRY
Chain of Histamine H1 receptor (P31390 whole entry): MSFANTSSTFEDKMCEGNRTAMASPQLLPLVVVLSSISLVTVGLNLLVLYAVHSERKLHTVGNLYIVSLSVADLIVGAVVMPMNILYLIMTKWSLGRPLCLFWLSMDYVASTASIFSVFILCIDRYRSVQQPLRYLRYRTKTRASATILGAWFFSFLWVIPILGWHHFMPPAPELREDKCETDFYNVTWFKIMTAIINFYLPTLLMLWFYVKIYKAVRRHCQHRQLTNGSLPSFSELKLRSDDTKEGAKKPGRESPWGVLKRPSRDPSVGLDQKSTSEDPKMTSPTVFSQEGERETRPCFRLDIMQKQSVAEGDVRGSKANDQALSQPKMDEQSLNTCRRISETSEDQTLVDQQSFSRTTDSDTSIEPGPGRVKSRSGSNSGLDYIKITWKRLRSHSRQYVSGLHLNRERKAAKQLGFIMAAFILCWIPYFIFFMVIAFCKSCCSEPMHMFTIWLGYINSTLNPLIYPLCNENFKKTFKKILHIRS
Chain of Mu-type opioid receptor (P33535 whole entry): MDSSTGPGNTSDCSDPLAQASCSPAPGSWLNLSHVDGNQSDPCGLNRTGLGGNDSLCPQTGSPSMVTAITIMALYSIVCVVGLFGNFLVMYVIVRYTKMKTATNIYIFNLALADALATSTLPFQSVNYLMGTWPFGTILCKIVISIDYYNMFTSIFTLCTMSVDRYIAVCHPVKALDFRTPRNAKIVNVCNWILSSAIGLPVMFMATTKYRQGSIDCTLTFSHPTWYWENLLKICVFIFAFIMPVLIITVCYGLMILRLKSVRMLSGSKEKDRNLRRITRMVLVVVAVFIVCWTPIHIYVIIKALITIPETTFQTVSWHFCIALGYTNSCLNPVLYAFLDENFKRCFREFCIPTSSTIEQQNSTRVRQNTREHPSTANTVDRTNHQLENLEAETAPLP
Chain of Delta-type opioid receptor (P33533 whole entry): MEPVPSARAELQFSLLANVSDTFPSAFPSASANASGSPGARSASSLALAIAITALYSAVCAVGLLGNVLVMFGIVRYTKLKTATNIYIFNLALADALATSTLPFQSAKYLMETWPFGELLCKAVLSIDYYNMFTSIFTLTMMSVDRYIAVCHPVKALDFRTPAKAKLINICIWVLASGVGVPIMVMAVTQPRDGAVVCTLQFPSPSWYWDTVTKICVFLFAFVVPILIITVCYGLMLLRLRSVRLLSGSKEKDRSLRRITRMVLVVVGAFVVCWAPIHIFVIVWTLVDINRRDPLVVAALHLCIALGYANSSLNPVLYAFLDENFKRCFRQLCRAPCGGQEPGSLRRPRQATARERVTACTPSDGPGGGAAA
Chain of Sodium-dependent serotonin transporter (P31652 whole entry): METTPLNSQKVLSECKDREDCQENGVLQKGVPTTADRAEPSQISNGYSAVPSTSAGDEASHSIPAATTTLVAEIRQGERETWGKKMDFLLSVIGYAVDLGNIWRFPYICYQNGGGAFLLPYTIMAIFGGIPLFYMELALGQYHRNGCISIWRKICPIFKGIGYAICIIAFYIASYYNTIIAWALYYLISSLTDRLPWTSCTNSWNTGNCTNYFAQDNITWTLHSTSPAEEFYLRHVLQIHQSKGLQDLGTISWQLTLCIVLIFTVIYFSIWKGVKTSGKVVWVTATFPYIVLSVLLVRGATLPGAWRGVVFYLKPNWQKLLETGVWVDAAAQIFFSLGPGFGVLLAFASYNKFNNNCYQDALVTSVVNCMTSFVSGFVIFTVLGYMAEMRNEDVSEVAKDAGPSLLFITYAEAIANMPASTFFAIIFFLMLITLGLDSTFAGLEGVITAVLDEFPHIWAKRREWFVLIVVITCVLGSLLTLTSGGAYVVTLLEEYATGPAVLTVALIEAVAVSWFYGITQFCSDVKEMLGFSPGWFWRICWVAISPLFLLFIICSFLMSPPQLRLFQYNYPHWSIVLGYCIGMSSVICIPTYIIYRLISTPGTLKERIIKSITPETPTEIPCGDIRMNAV
Chain of Norepinephrine transporter (Q9WTR4 whole entry): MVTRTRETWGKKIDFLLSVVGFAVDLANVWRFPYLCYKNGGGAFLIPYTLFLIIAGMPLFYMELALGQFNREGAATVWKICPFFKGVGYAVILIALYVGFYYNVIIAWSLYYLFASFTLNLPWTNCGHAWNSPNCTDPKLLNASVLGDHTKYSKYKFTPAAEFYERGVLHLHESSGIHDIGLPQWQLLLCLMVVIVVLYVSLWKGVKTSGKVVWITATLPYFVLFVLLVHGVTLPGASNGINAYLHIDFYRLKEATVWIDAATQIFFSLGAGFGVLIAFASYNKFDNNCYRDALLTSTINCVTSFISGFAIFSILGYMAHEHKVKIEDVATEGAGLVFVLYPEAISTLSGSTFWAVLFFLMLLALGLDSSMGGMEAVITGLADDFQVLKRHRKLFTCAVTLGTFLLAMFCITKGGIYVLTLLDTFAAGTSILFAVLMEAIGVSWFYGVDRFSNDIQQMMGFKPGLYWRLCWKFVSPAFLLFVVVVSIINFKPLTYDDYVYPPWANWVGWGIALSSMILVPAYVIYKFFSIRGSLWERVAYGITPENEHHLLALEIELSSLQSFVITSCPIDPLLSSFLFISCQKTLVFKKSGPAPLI

Compound | IC50 (Melanocortin receptor 4) | IC50 (D(2) dopamine receptor) | IC50 [1] | IC50 (Mu-type opioid receptor) | IC50 (Histamine H1 receptor) | IC50 [2] | IC50 [3] | IC50 [4] | Activity (Rattus norvegicus)
CC(C)N1CCC(C(CN2CCN(CCCc3cc(F)ccc3-c3ccccc3)CC2)c2ccc(F)cc2)CC1 (racemic) | 52.2 nM |  |  |  |  |  |  |  | 
CC(C)N1CCC(C(CN2CCN(CCCc3cccc(F)c3-c3ccccc3)CC2)c2ccc(F)cc2)CC1.Cl (racemic) | 19.8 nM | 482 nM | > 1000 nM | > 10000 nM | > 1000 nM | > 10000 nM | 3940 nM | 3130 nM | Active
CC(C)N1CCC(C(CN2CCN(CCCc3ccccc3-c3cccc(F)c3)CC2)c2ccc(F)cc2)CC1.Cl (racemic) | 23.4 nM | 805 nM | > 1000 nM | > 10000 nM | > 1000 nM | > 10000 nM | 543 nM | 2140 nM | 
CC(C)N1CCC(C(CN2CCN(CCCc3ccccc3-c3ccccc3F)CC2)c2ccc(F)cc2)CC1 (racemic) | 98.6 nM |  |  |  |  |  |  |  | 
COc1ccc2ccccc2c1CCCCN1CCN(CC(c2ccc(F)cc2)C2CCN(C(C)C)CC2)CC1.Cl (racemic) | 40.3 nM | > 1000 nM | > 1000 nM | > 10000 nM | > 1000 nM | > 10000 nM | 2830 nM | 877 nM | 
CC(C)N1CCC(C(CN2CCN(CCCc3ccc(F)cc3-c3ccccc3)CC2)c2ccc(F)cc2)CC1 (racemic) | 52.7 nM |  |  |  |  |  |  |  | 
CC(C)N1CCC(C(CN2CCN(CCCc3ccccc3-c3ccccc3)CC2)c2ccc(F)cc2)CC1.Cl (racemic) | 19.7 nM | 423 nM | > 1000 nM | > 10000 nM | > 1000 nM | > 10000 nM | 1180 nM | 953 nM | Active
CC(C)N1CCC(C(CN2CCN(CCCc3c(F)cccc3-c3ccccc3)CC2)c2ccc(F)cc2)CC1.Cl (racemic) | 18.3 nM | > 1000 nM | > 1000 nM | > 10000 nM | > 1000 nM | > 10000 nM | 491 nM | 723 nM | 
CN1CCC(C(CN2CCN(CCCCc3cccc4ccccc34)CC2)c2ccc(F)cc2)CC1 (racemic) | 333 nM |  |  |  |  |  |  |  | 
CC(C)N1CCC(C(CN2CCN(CCCc3ccccc3-c3ccc(F)cc3)CC2)c2ccc(F)cc2)CC1.Cl (racemic) | 14.5 nM | 820 nM | > 1000 nM | > 10000 nM | > 1000 nM | > 10000 nM | 729 nM | 3940 nM | 
